Laboratory results as given in ChEMBL document CHEMBL3817735 (J Med Chem, 2016).

What was measured:
Influenza A virus [1] = test: Antiviral activity against Influenza A virus A/duck/Chiba/13/06(H12N5) infected in MDCK cells preincubated for 1 hr followed by infection measured after 19 to 20 hrs by galactosidase-based fluorescence assay and peroxidase-based chromogenic assay; type: functional, organism-based
Influenza A virus [2] = test: Antiviral activity against Influenza A virus (A/duck/Tsukuba/28/2006(H3N8)) infected in MDCK cells preincubated for 1 hr followed by infection measured after 19 to 20 hrs by galactosidase-based fluorescence assay and peroxidase-based chromogenic assay; type: functional, organism-based
Influenza A virus [3] = test: Antiviral activity against Influenza A virus (A/California/04/2009(H1N1)) infected in dog AX4 cells preincubated for 1 hr followed by infection measured after 19 to 20 hrs by galactosidase-based fluorescence assay and peroxidase-based chromogenic assay; type: functional, organism-based
Influenza A virus [4] = test: Antiviral activity against Influenza A virus (A/Narita/1/2009(H1N1)) infected in dog AX4 cells preincubated for 1 hr followed by infection measured after 19 to 20 hrs by galactosidase-based fluorescence assay and peroxidase-based chromogenic assay; type: functional, organism-based
Influenza A virus [5] = test: Antiviral activity against Influenza A virus (A/duck/Tsukuba/28/2005(H6N2)) infected in MDCK cells preincubated for 1 hr followed by infection measured after 19 to 20 hrs by galactosidase-based fluorescence assay and peroxidase-based chromogenic assay; type: functional, organism-based
Influenza A virus [6] = test: Antiviral activity against Influenza A virus A/Kitakyushu/10/06(H1N1) infected in dog AX4 cells preincubated for 1 hr followed by infection measured after 19 to 20 hrs by galactosidase-based fluorescence assay and peroxidase-based chromogenic assay; type: functional, organism-based
Influenza A virus [7] = test: Antiviral activity against Influenza A virus (A/Aichi/75/2008(H3N2)) infected in dog AX4 cells preincubated for 1 hr followed by infection measured after 19 to 20 hrs by galactosidase-based fluorescence assay and peroxidase-based chromogenic assay; type: functional, organism-based
Influenza A virus [8] = test: Antiviral activity against Influenza A virus (A/duck/Tsukuba/20/2007(H8N4)) infected in MDCK cells preincubated for 1 hr followed by infection measured after 19 to 20 hrs by galactosidase-based fluorescence assay and peroxidase-based chromogenic assay; type: functional, organism-based
Influenza A virus [9] = test: Antiviral activity against Influenza A virus A/Yamaguchi/20/06(H1N1) infected in dog AX4 cells preincubated for 1 hr followed by infection measured after 19 to 20 hrs by galactosidase-based fluorescence assay and peroxidase-based chromogenic assay; type: functional, organism-based
Influenza A virus [10] = test: Antiviral activity against Influenza A virus (A/duck/Tsukuba/394/2005(H5N3)) infected in MDCK cells preincubated for 1 hr followed by infection measured after 19 to 20 hrs by galactosidase-based fluorescence assay and peroxidase-based chromogenic assay; type: functional, organism-based
Influenza A virus [11] = test: Antiviral activity against Influenza A virus (A/duck/Tsukuba/700/2007(H7N7)) infected in MDCK cells preincubated for 1 hr followed by infection measured after 19 to 20 hrs by galactosidase-based fluorescence assay and peroxidase-based chromogenic assay; type: functional, organism-based
Influenza A virus [12] = test: Antiviral activity against Influenza A virus (A/Aichi/102/2008(H3N2)) infected in dog AX4 cells preincubated for 1 hr followed by infection measured after 19 to 20 hrs by galactosidase-based fluorescence assay and peroxidase-based chromogenic assay; type: functional, organism-based
Influenza A virus [13] = test: Antiviral activity against Influenza A virus A/duck/Tsukuba/441/05(H11N9) infected in MDCK cells preincubated for 1 hr followed by infection measured after 19 to 20 hrs by galactosidase-based fluorescence assay and peroxidase-based chromogenic assay; type: functional, organism-based
Influenza A virus [14] = test: Antiviral activity against Influenza A virus (A/duck/Shiga/8/2004(H4N6)) infected in MDCK cells preincubated for 1 hr followed by infection measured after 19 to 20 hrs by galactosidase-based fluorescence assay and peroxidase-based chromogenic assay; type: functional, organism-based
Influenza A virus [15] = test: Antiviral activity against Influenza A virus (A/duck/Tsukuba/67/2005(H1N1)) infected in MDCK cells preincubated for 1 hr followed by infection measured after 19 to 20 hrs by galactosidase-based fluorescence assay and peroxidase-based chromogenic assay; type: functional, organism-based
Influenza A virus [16] = test: Antiviral activity against Influenza A virus (A/mallard/Hokkaido/24/2009(H5N1)) infected in MDCK cells preincubated for 1 hr followed by infection measured after 19 to 20 hrs by galactosidase-based fluorescence assay and peroxidase-based chromogenic assay; type: functional, organism-based
Sialidase-3 = molecular target: T1, Sialidase-3 (Homo sapiens, UniProt Q9UQ49); test: Inhibition of human Neu3 expressed in HEK293T cells using GM3 as substrate incubated for 30 mins by HPLC analysis; type: cell-based, HEK-293T
T1 sequence (Q9UQ49 whole entry): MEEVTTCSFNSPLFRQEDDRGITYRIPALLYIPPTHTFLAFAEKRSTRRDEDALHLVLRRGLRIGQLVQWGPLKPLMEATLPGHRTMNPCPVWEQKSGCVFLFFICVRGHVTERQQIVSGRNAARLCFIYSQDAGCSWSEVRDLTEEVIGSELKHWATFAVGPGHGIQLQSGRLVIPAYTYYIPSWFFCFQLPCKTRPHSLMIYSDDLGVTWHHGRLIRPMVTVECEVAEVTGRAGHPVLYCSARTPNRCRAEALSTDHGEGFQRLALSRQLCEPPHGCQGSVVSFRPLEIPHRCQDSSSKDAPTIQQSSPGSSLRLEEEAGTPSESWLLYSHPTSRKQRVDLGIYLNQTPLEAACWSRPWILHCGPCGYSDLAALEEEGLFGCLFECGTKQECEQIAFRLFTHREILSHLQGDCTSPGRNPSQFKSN

[17] = Cytotoxicity against dog AX4 cells at 0.064 to 1000 uM incubated for 24 hrs by cell counting analysis; type: cell-based, Canis lupus familiaris; conditions: ax4, 24 h
Sialidase-4 [18] = molecular target: T2, Sialidase-4 (Homo sapiens, UniProt Q8WWR8); test: Inhibition of human Neu4 expressed in HEK293T cells using 4MU-Neu5Ac as substrate incubated for 30 mins by HPLC analysis; type: cell-based, HEK-293T
T2 sequence (Q8WWR8 whole entry): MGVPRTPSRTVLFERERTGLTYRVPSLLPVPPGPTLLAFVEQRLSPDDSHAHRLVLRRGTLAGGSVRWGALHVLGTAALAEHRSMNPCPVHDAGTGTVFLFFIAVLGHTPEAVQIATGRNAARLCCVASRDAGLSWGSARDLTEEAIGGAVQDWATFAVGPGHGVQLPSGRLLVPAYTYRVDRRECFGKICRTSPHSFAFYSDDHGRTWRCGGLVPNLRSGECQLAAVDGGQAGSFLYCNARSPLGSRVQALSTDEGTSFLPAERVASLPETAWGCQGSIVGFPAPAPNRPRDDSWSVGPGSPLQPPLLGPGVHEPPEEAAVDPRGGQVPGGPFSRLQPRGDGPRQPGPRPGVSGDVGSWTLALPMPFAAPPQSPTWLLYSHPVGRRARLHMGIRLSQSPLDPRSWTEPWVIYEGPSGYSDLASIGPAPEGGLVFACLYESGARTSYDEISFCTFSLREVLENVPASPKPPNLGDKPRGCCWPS

Sialidase-1 = Sialidase-1 (Homo sapiens, UniProt Q99519); test: Inhibition of human Neu1 expressed in HEK293T cells using 4MU-Neu5Ac as substrate incubated for 30 mins by HPLC analysis; type: cell-based, HEK-293T
MDCK = test: Cytotoxicity against MDCK cells at 0.064 to 1000 uM incubated for 24 hrs by cell counting analysis; type: cell-based, Canis lupus familiaris; conditions: dog
Sialidase-4 [19] = molecular target: T2, Sialidase-4; test: Inhibition of human Neu4 expressed in HEK293T cells using GM3 as substrate incubated for 30 mins by HPLC analysis; type: cell-based, HEK-293T
Neuraminidase [20] = molecular target: T3, Neuraminidase (Influenza A virus, UniProt B4URF0); test: Inhibition of Influenza A virus (A/duck/Tsukuba/394/2005(H5N3)) neuraminidase N3 activity using 4MU-Neu5Ac as substrate preincubated for 15 mins followed by substrate addition measured after 15 mins by fluorescence analysis
Neuraminidase [21] = molecular target: T3, Neuraminidase; test: Inhibition of Influenza A virus (A/duck/Tsukuba/67/2005(H1N1)) neuraminidase N1 activity using 4MU-Neu5Ac as substrate preincubated for 15 mins followed by substrate addition measured after 15 mins by fluorescence analysis
Neuraminidase [22] = molecular target: T3, Neuraminidase; test: Inhibition of Influenza A virus (A/duck/Tsukuba/28/2005(H6N2)) neuraminidase N2 activity using 4MU-Neu5Ac as substrate preincubated for 15 mins followed by substrate addition measured after 15 mins by fluorescence analysis

T3 sequence (B4URF0 whole entry): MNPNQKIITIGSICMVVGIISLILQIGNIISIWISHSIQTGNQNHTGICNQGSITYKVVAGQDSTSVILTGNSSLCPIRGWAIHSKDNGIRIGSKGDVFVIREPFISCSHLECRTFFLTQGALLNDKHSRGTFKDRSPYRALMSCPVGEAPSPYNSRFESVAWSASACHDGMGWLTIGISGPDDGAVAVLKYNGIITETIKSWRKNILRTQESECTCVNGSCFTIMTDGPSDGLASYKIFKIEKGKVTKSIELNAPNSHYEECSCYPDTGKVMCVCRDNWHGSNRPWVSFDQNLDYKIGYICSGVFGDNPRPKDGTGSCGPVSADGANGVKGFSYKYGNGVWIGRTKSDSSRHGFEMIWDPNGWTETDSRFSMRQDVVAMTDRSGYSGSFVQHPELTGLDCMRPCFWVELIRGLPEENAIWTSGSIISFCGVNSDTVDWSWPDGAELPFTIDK

SMILES	IC50 (Influenza A virus [1]) [µM]	IC50 (Influenza A virus [2]; Influenza A virus, MDCK) [µM]	IC50 (Influenza A virus [3]) [µM]	IC50 (Influenza A virus [4]) [µM]	IC50 (Influenza A virus [5]) [µM]	IC50 (Influenza A virus [6]) [µM]	IC50 (Influenza A virus [7]) [nM]	IC50 (Influenza A virus [8]) [µM]	IC50 (Influenza A virus [9]) [µM]	IC50 (Influenza A virus [10]) [µM]	IC50 (Influenza A virus [11]) [µM]	IC50 (Influenza A virus [12]) [nM]	IC50 (Influenza A virus [13]) [µM]	IC50 (Influenza A virus [14]) [µM]	IC50 (Influenza A virus [15]) [µM]	IC50 (Influenza A virus [16]) [µM]	IC50 (Sialidase-3) [µM]	Activity [17]	IC50 (Sialidase-4 [18]) [µM]	IC50 (Sialidase-1) [µM]	further results
CCC(CC)OC[C@@H]1CC(C(=O)O)=C[C@H](N)[C@H]1NC(C)=O	0.00364	0.00551	0.0003	0.00028	0.00085	3.91	0.07	0.005	0.00171	0.00228	0.00474	0.04	0.0129	0.00087	0.00758	0.0282	–	–	–	–	–
CC(=O)N[C@H]1[C@H]([C@H](O)[C@H](O)CNC(=O)C2CC2)OC(C(=O)O)=C[C@@H]1NC(=N)N.O=C(O)C(F)(F)F	0.0293	0.163	0.00604	0.00486	0.0118	0.106	1.34	0.197	0.0276	0.0382	0.276	1.27	0.3	0.0248	0.049	0.396	> 1000	Non-toxic	> 1000	> 1000	Activity (MDCK): Non-toxic; IC50 (Sialidase-4 [19]): > 1000 µM
CCCCC(=O)NC[C@@H](O)[C@@H](O)[C@@H]1OC(C(=O)O)=C[C@H](NC(=N)N)[C@H]1NC(C)=O.O=C(O)C(F)(F)F	25.6	47.7	0.136	0.127	0.448	0.337	24.7	5.67	0.39	5.87	5.02	40.2	5.5	1.1	2.25	8.3	> 1000	Non-toxic	> 700	> 700	Activity (MDCK): Non-toxic; IC50 (Sialidase-4 [19]): > 700 µM
CC(=O)N[C@H]1[C@H]([C@H](O)[C@H](O)CO)OC(C(=O)O)=C[C@@H]1O [NEU5AC2EN]	–	–	–	–	–	–	–	–	–	–	–	–	–	–	–	–	50	–	–	–	IC50 (Neuraminidase [20]): 1 µM; IC50 (Neuraminidase [21]): 1 µM; IC50 (Neuraminidase [22]): 1 µM
CC(=O)N[C@H]1[C@H]([C@H](O)[C@H](O)CO)OC(C(=O)O)=C[C@@H]1NC(=N)N [ZANAMIVIR]	0.0288	–	–	–	0.0065	–	–	0.00933	–	0.0119	0.0584	–	0.065	0.0109	0.00273	0.0156	–	–	–	> 1000	IC50 (Influenza A virus [2]; mdck): 0.0167 µM
